Patent publication US10208071B2, “Use of agonists of formyl peptide receptor 2 for treating ocular inflammatory diseases” (Allergan, Inc., priority 2013, dated 2019)
Read-outs that look alike come from different tables or passages of the source.

Target: FPR2 (Homo sapiens (Human), UniProt P25090)
Assay: FLIPR Ca+2 response, HEK-Gα16 cells stably expressing the human FPR2 receptor (Table 4)
Format: cell-based
Conditions: for FPR2 (efficacy): efficacy in parentheses
Experimental: FLIPR: HEK-Gα16 cells stably expressing the human FPR2 receptor was utilized. Cells were plated into 384-well poly-D-lysine coated plates at a density of 18,000 cells per well one day prior to use. The growth media was DMEM medium supplemented with 10% fetal bovine serum (FBS), 1% antibiotic-antimycotic, 50 μg/ml hygromycin, and 400 μg/ml geneticin. On the day of the experiment, the cells were washed twice with Hank's Balanced Salt Solution supplemented with 20 mM HEPES (HBSS/hepes buffer). The cells were then dye loaded with 2 μM Fluo-4 diluted in the HBSS/Hepes buffer and incubated at 37° C. for 40 minutes. Extracellular dye was removed by washing the cell plates four times prior to placing the plates in the FLIPR (Fluorometric Imaging Plate Reader, Molecular Devices). Ligands were diluted in HBSS/Hepes buffer and prepared in 384-well microplates. Data for Ca^+2 responses were obtained in relative fluorescence units.

Chain of FPR2 (P25090 whole entry): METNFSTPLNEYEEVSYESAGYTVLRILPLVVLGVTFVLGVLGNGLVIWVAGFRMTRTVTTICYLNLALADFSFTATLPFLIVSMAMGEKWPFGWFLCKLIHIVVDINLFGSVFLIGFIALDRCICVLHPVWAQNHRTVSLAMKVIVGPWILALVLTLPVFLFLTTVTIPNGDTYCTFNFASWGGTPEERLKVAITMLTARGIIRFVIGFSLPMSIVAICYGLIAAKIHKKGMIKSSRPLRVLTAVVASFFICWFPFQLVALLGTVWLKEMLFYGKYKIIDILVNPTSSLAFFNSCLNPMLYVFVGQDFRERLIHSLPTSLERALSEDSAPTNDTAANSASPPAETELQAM

Row | SMILES | EC50 | FPR2 (efficacy) | EC50 (unit inferred)
1 | O=C(O)[C@@H]1C2CCC([C@@H]1C(=O)Nc1ccc(Br)cc1)C21CC1 (relative stereo) [Compound 14, rel-(2R,3S)-3-[(4-bromophenyl)carbamoyl] spiro[bicyclo[2.2.1]heptane-7,1′-cyclopropane]-2-carboxylic acid] | 4 nM | nM (0.90) | 
2 | CC1(CCc2ccccc2)NC(=O)N(NC(=O)Nc2ccc(Br)cc2)C1=O (single isomer, unassigned; (+)) [Compound 57] |  | nM (0.93) | 
3 | CCC1(C(C)C)NC(=O)N(NC(=O)Nc2ccc(Br)cc2)C1=O (single isomer, unassigned; (+)) [Compound 66, (+)1-(4-bromophenyl)-3-[4-ethyl-2,5-dioxo-4-(propan-2-yl)imidazolidin-1-yl]urea] |  | nM (0.96) | 
4 | NC(=O)C1C(C(=O)Nc2ccc(Br)cc2)C2CCC1C21CC1 (single isomer, unassigned; (-)) [Compound 45, (−) N-(4-bromophenyl)spiro[bicyclo[2.2.1]heptane-7,1′-cyclopropane]-2,3-dicarboxamide] |  | nM (0.91) | 
5 | CCC1(C(C)C)NC(=O)N(NC(=O)Nc2ccc(Br)cc2)C1=O (single isomer, unassigned; (-)) [Compound 67, (−)1-(4-bromophenyl)-3-[4-ethyl-2,5-dioxo-4-(propan-2-yl)imidazolidin-1-yl]urea] |  | nM (1.0) | 
6 | CCC(C)[C@@H](NC(=O)Nc1ccc(Br)cc1)C(=O)O (stereo in doubt) [Compound 122, (2R,3R)-2-{[(4-bromophenyl)carbamoyl]amino}-3-methylpentanoic acid] |  | μM (0.59) | 
7 | CCC1(CCc2ccccc2)NC(=O)N(NC(=O)Nc2ccc(Br)cc2)C1=O (stereo not shown) [Compound 1, 1-(4-bromophenyl)-3-[4-ethyl-2,5-dioxo-4-(2-phenylethyl)imidazolidin-1-yl]urea] |  | (0.96) | 3 nM
8 | CCC[C@H](NC(=O)Nc1ccc(Br)cc1)C(=O)NCC(=O)O [Compound 2, {[(2S)-2-{[(4-bromophenyl)carbamoyl]amino}pentanoyl]amino}acetic acid] |  | (0.91) | 2 nM
9 | CCC1(C(C)C)NC(=O)N(NC(=O)Nc2ccc(Br)cc2)C1=O (stereo not shown) [Compound 4, 1-(4-bromophenyl)-3-[4-ethyl-2,5-dioxo-4-(propan-2-yl)imidazolidin-1-yl]urea] |  | (0.90) | 
10 | CC[C@H](C)[C@H](NC(=O)Nc1ccc(Br)cc1F)C(=O)O [Compound 5, (2S,3S)-2-{[(4-bromo-2-fluorophenyl)carbamoyl]amino}-3-methylpentanoic acid] |  | (0.96) | 31 nM
11 | CC(C)C[C@H](NC(=O)Nc1ccc(Br)cc1)C(=O)NC(C)(C)C(=O)O [Compound 6, 2-{[(2S)-2-{[(4-bromophenyl)carbamoyl]amino}-4-methylpentanoyl]amino}-2-methylpropanoic acid] |  | (0.91) | 1.66 nM
12 | CC(C)C[C@H](NC(=O)Nc1ccc(Br)cc1F)C(=O)NCC(=O)O [Compound 7, {[(2S)-2-{[(4-bromo-2-fluorophenyl)carbamoyl]amino}-4-methylpentanoyl]amino}acetic acid] |  | (1.0) | 3.57 nM
13 | CC(C)C[C@H](NC(=O)Nc1ccc(Br)cc1)C(=O)NCC(=O)O [Compound 8, {[(2S)-2-{[(4-bromophenyl)carbamoyl]amino}-4-methylpentanoyl]amino}acetic acid] |  | (0.78) | 
14 | CC(C)C[C@H](NC(=O)Nc1ccc(Br)cc1)C(=O)O [Compound 9, (2S)-2-{[(4-bromophenyl)carbamoyl]amino}-4-methylpentanoic acid] |  | (0.77) | 5.95 nM
15 | O=C(Nc1ccc(Br)cc1)NC(Cc1ccccc1)C(=O)NC1CCCCNC1=O (stereo not shown) [Compound 10, 2-{[(4-bromophenyl)carbamoyl]amino}-N-(2-oxoazepan-3-yl)-3-phenylpropanamide] | 11 nM | nM (0.89) | 
16 | O=C(O)C1C(C(=O)Nc2ccc(I)cc2)C2C=CC1C21CC1 (stereo not shown) [Compound 11, 3-[(4-iodophenyl)carbamoyl] spiro[bicyclo[2.2.1]heptane-7,1′-cyclopropane]-5-ene-2-carboxylic acid] | 1.6 nM | nM (1.00) | 
17 | O=C(O)C1C(C(=O)Nc2ccc(Br)cc2)C2C=CC1C21CC1 (stereo not shown) [Compound 12, 3-[(4-bromophenyl)carbamoyl] spiro[bicyclo[2.2.1]heptane-7,1′-cyclopropane]-5-ene-2-carboxylic acid] | 4 nM | nM (0.97) | 

Row | SMILES | EC50 | FPR2 (efficacy) | EC50 (unit inferred)
18 | CC(=O)c1ccc(NC(=O)Nc2ccc3c(c2)C(=O)N(CCc2c[nH]cn2)C(c2ccc(C#N)cc2)C3)cc1 (stereo not shown) [Compound 13, 1-(4-acetylphenyl)-3-{3-(4-cyanophenyl)-2-[2-(1H-imidazol-4-yl)ethyl]-1-oxo-1,2,3,4-tetrahydroisoquinolin-7-yl}urea] |  | nM (0.80) | 
19 | O=C(O)C1C(C(=O)Nc2ccc(I)cc2)C2CCC1C21CC1 (stereo not shown) [Compound 15, 3-[(4-iodophenyl)carbamoyl] spiro[bicyclo[2.2.1]heptane-7,1′-cyclopropane]-2-carboxylic acid] | 0.6 nM | nM (0.87) | 
20 | CSc1ccc(NC(=O)Nc2ccc3c(c2)C(=O)N(CCCN)C(c2ccc(C#N)cc2)C3)cc1 (stereo not shown) [Compound 16, 1-[2-(3-aminopropyl)-3-(4-cyanophenyl)-1-oxo-1,2,3,4-tetrahydroisoquinolin-7-yl]-3-[4-(methylsulfanyl)phenyl]urea] |  | nM (0.70) | 
21 | CSc1ccc(NC(=O)Nc2ccc3c(c2)C(=O)N(CCc2c[nH]cn2)C(c2ccc(C#N)cc2)C3)cc1 (stereo not shown) [Compound 17, 1-{3-(4-cyanophenyl)-2-[2-(1H-imidazol-4-yl)ethyl]-1-oxo-1,2,3,4-tetrahydroisoquinolin-7-yl}-3-[4-(methylsulfanyl)phenyl]urea] | 5.5 nM | nM (0.92) | 
22 | CS(=O)(=O)c1ccc(NC(=O)Nc2ccc3c(c2)C(=O)N(CCCN)C(c2ccc(C#N)cc2)C3)cc1 (stereo not shown) [Compound 18, 1-[2-(3-aminopropyl)-3-(4-cyanophenyl)-1-oxo-1,2,3,4-tetrahydroisoquinolin-7-yl]-3-[4-(methylsulfonyl)phenyl]urea] |  | nM (0.86) | 
23 | CS(=O)(=O)c1ccc(NC(=O)Nc2ccc3c(c2)C(=O)N(CCc2c[nH]cn2)C(c2ccc(C#N)cc2)C3)cc1 (stereo not shown) [Compound 19, 1-{3-(4-cyanophenyl)-2-[2-(1H-imidazol-4-yl)ethyl]-1-oxo-1,2,3,4-tetrahydroisoquinolin-7-yl}-3-[4-(methylsulfonyl)phenyl]urea] |  | nM (1.00) | 
24 | CC(C)=C1C2C=CC1C(C(=O)Nc1ccc(I)cc1)C2C(=O)O (stereo not shown) [Compound 20, 3-[(4-iodophenyl)carbamoyl]-7-(propan-2-ylidene)bicyclo[2.2.1]hept-5-ene-2-carboxylic acid] |  | nM (0.94) | 
25 | CC1(C)C2CCC1C(C(=O)Nc1ccc(Br)cc1)C2C(=O)O (stereo not shown) [Compound 21, 3-[(4-bromophenyl)carbamoyl]-7,7-dimethylbicyclo[2.2.1]heptane-2-carboxylic acid] |  | nM (0.85) | 
26 | CC1(C)C2CCC1C(C(=O)Nc1ccc(I)cc1)C2C(=O)O (stereo not shown) [Compound 22, 3-[(4-iodophenyl)carbamoyl]-7,7-dimethylbicyclo[2.2.1]heptane-2-carboxylic acid] |  | nM (0.97) | 
27 | CSc1ccc(NC(=O)Nc2ccc3c(c2)C(=O)N(CCc2c[nH]cn2)C(c2ccco2)C3)cc1 (stereo not shown) [Compound 23, 1-{3-(furan-2-yl)-2-[2-(1H-imidazol-4-yl)ethyl]-1-oxo-1,2,3,4-tetrahydroisoquinolin-7-yl}-3-[4-(methylsulfanyl)phenyl]urea] |  | nM (0.83) | 
28 | C[S+]([O-])c1ccc(NC(=O)Nc2ccc3c(c2)C(=O)N(CCc2c[nH]cn2)C(c2ccc(F)cn2)C3)cc1 (stereo not shown) [Compound 24, 1-{3-(5-fluoropyridin-2-yl)-2-[2-(1H-imidazol-4-yl)ethyl]-1-oxo-1,2,3,4-tetrahydroisoquinolin-7-yl}-3-[4-(methylsulfinyl)phenyl]urea] |  | nM (0.93) | 
29 | CS(=O)(=O)c1ccc(NC(=O)Nc2ccc3c(c2)C(=O)N(CCc2c[nH]cn2)C(c2ccc(F)cn2)C3)cc1 (stereo not shown) [Compound 25, 1-{3-(5-fluoropyridin-2-yl)-2-[2-(1H-imidazol-4-yl)ethyl]-1-oxo-1,2,3,4-tetrahydroisoquinolin-7-yl}-3-[4-(methylsulfonyl)phenyl]urea] |  | nM (1.0) | 
30 | NC(=O)C1C(C(=O)Nc2ccc(Br)cc2)C2C=CC1C21CC1 (stereo not shown) [Compound 26, N-(4-bromophenyl) spiro[bicyclo[2.2.1]heptane-7,1′-cyclopropane]-5-ene-2,3-dicarboxamide] |  | nM (0.91) | 
31 | CSc1ccc(NC(=O)Nc2ccc3c(c2)C(=O)N(CCc2c[nH]cn2)C(c2ccc(Cl)o2)C3)cc1 (stereo not shown) [Compound 27, 1-{3-(5-chlorofuran-2-yl)-2-[2-(1H-imidazol-4-yl)ethyl]-1-oxo-1,2,3,4-tetrahydroisoquinolin-7-yl}-3-[4-(methylsulfanyl)phenyl]urea] |  | nM (0.81) | 
32 | CSc1ccc(NC(=O)Nc2ccc3c(c2)C(=O)N(CCc2c[nH]cn2)C(c2ccc(Cl)nc2)C3)cc1 (stereo not shown) [Compound 28, 1-{3-(6-chloropyridin-3-yl)-2-[2-(1H-imidazol-4-yl)ethyl]-1-oxo-1,2,3,4-tetrahydroisoquinolin-7-yl}-3-[4-(methylsulfanyl)phenyl]urea] |  | nM (0.89) | 
33 | NC(=O)C1C(C(=O)Nc2ccc(Br)cc2)C2CCC1C21CC1 (stereo not shown) [Compound 30, N-(4-bromophenyl) spiro[bicyclo[2.2.1]heptane-7,1′-cyclopropane]-2,3-dicarboxamide] | 2.5 nM | nM (0.96) | 
